# Results as given in patent publication US12264156B2, “Compounds and pharmaceutical compositions thereof for the treatment of diseases” (GALAPAGOS NV, priority 2018, dated 2025).
# How the values were obtained:
# [1] = test system: IL-23 induced psoriatic-like epidermal hyperplasia; assay: Murine model of psoriatic-like epidermal hyperplasia induced by intradermal injections of IL-23; type: in vivo, mouse; conditions: 10 mg/kg p.o. b.i.d.
# Description: Mouse recombinant IL-23, carrier free (Cat #14-8231) is provided by e-Bioscience (Frankfurt, Germany).
# Balb/c mice (female, 18-20 g body weight) were obtained from Janvier Labs (Le Genest-Saint-Isle, France). Mice are kept on a 12 h light/dark cycle. Temperature was maintained at 22° C., food and water are provided ad libitum.
# The design of the study was adapted from Rizzo H L. et al. (Rizzo et al. 2011). On the first day (D1), the mice were shaved around the two ears. For 4 consecutive days (D1 to D4), the mice received a daily intradermal dose of mouse recombinant IL-23 (1 μg/20 μL in PBS/0.1% BSA) in the right pinna ear and 20 μL of PBS/0.1% BSA in the left pinna ear under anesthesia.
# From D1 to D5, mice were dosed with test-compound or with vehicle, 1 h prior IL-23 injection.
# The thickness of both ears was measured daily with an automatic caliper. Body weight was assessed at initiation and at sacrifice. On fifth day, 2 h after the last dosing, the mice were sacrificed. The pinnae of the ear were cut, excluding cartilage. The pinnae, placed in a vial containing 1 mL of RNAlater® solution.
# There were 8 mice per group. The results were expressed as mean±SEM and statistical analysis was performed using one-way ANOVA followed by Dunnett's post-hoc test versus IL-23 vehicle groups.
# mouse CAIA model = assay: Murine collagen-antibody induced arthritis model (CAIA); type: in vivo; conditions: 60 mg/kg p.o. b.i.d.
# Description: ArthritoMabrm antibody cocktail for inducing arthritis and lipopolysaccharide (LPS) from Escherichia Coli serotype O55:B5 were purchased from MD Biosciences (OakdalMNnn., USA, Cat #CIA-MAB-50); PBS 1× (GIBCO, Cat #140190-086) was obtained from ThermoFisher Scientific, and Enbrel® (etanercept) was purchased from Chondrex (L'Isle d'Abeau, France, Cat #3771910).
# Five to seven week old BALBc female mice were obtained from Janvier Labs (Le Genest-Saint-Isle, France). Mice were kept on a 12 h light/dark cycle. Temperature was maintained at 22° C., food and water were provided ad libitum.
# The therapeutic effects of the compounds of the invention were tested in the mouse CAIA model (MD Biosciences 2008; Nandakumar et al. 2003). At day 1 (D1), mice were randomly divided into equal groups containing 10 mice. […] Bodyweight and clinical score of each mouse was assessed every day except the weekend until the end of the study. […] For histology readouts, right and left hind paws were individually collected in vials (25 mL minimum) filled with 4% buffered formaldehyde for a minimum of 24 h to a maximum of 4 days at RT.
# Arthritis was scored according to the method of Khachigian 2006; Lin et al 2007 and Nishida et al. 2004 (Khachigian 2006; Lin et al. 2007; Nishida et al. 2004). […]
# [2] = test system: lung fibrosis induced by radiation; assay: Radiation induced fibrosis mouse model; type: in vivo; conditions: 60 mg/kg p.o. b.i.d.
# Description: Pneumonitis and lung fibrosis are the major radiation-induced complications following thoracic radiotherapy, which is one of the major treatment of lung and breast cancers, lymphomas and hematopoietic transplant conditioning. The objective of this model was to evaluate the effect of a compound of the invention in lung fibrosis induced by radiation in mice (Favaudon et al. 2014), in particular on lung functionality (Flexivent) and fibrosis marker (Collagen I).
# 7 weeks old (18-22 gr) female C57BL/6J mice from Charles River (Écully, France), batch number S1672) were maintained on 12 h light/dark cycle at 22° C. with ad libitum access to tap water and food. […]
# Body weight was recorded once a week, and on D23, lung function measurement under anesthesia was realized by Flexivent (Devos et al. 2017) for all groups (6 successful measurement per group) before sacrifice.
# Lungs were collected and fixed in 4% formaldehyde for 24 h before embedding in paraffin. […] The anti-collagen I antibody was detected and amplified by ImmPress kit (Vector Laboratories, 3, Accent Park, Bakewell Road, Orton Southgate, Peterborough, PE2 6XS, United Kingdom, Cat #MP-7401). The immunostained sections were then scanned (Nanozoomer, Hamamatsu) before quantification by image analysis (CaloPix software, TRIBVN Healthcare). Data were expressed as percentage collagen I area per area of lung tissue. […]
smiles,measurement,setting,value
"COc1cc(-c2cnc3cc(OCCN4CCOCC4)ccn23)cc2c1C(=O)N(CC(F)(F)F)CC2 [Cpd 88, 8-methoxy-6-[7-(2-morpholinoethoxy)imidazo [1,2-a]pyridin-3-yl]-2-(2,2,2-trifluoroethyl)-3,4-dihydroisoquinolin-1-one]",ear thickness compared to IL-23 vehicle group,[1],statistically significant decrease of the ear thickness
same,Area Under the Curve (AUC) of clinical score vs. vehicle group,mouse CAIA model,statistically significant reduction of Area Under the Curve (AUC) of clinical score
same,ColI (collagen I) extent vs. vehicle group,[2],statistically significant reduction of ColI (collagen I) extent
